The text below walks through data of ChEMBL document CHEMBL5500416, “Development of a Potent and Selective G2A (GPR132) Agonist” (J Med Chem, 2024).

Data set [1] concerns the target T1, Probable G-protein coupled receptor 132 (Homo sapiens, UniProt Q9UNW8).
T1 sequence (Q9UNW8 whole entry): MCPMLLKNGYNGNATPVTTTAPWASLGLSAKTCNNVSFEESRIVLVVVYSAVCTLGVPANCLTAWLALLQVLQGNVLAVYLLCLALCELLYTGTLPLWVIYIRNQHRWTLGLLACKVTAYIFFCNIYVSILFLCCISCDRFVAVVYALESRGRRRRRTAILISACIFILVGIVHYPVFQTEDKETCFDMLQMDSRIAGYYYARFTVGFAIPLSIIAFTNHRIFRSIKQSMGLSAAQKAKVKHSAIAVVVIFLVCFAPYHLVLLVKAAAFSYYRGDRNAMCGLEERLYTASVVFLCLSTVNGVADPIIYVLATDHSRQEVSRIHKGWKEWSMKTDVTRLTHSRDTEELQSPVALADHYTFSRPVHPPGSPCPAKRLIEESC
Description: Agonist activity at human G2A expressed in CHO-K1 cells co-expressing human GNA11 assessed as accumulation of IP-1 incubated for 90 mins by HTRF based FRET assay

A short description of data set [2]: Aqueous solubility of compound in PBS at pH 7.4 measured after 24 hrs by microplate analysis. Particulars: buffer, pH 7.4, 24 h. The format is physicochemical.
The nature of data set [3]: Metabolic stability in Sprague-Dawley rat liver microsomes assessed as parent compound remaining measured after 60 mins in presence of NADPH regenerating system by HPLC analysis. The data set is classed as ADME, Microsome. Particulars: read-out: Stability. For orientation: Liver microsomes are vesicles of endoplasmic reticulum, rich in cytochrome P450 enzymes.
Data set [4] can be described thus: Metabolic stability in Sprague-Dawley rat liver microsomes assessed as intrinsic clearance measured after 60 mins in presence of NADPH regenerating system by HPLC analysis. The data set is classed as ADME, Microsome. Particulars: 1 h.
The nature of data set [5]: Cytotoxicity against human HepG2 cells assessed as cell viability upto 100 uM incubated for 72 hrs by CellTiter-Glo assay relative to control. The data set is classed as toxicity, cell-based. Particulars: read-out: Activity. (ATP-based viability assays read luminescence as a measure of living cells.)
Data set [6] is described as follows: Cmax in male C57BL/6N mouse at 1 mg/kg, iv measured after 8 hrs by LC-MS analysis. The format is ADME, organism-based. Particulars: in vivo.
A short description of data set [7]: Tmax in male C57BL/6N mouse at 1 mg/kg, iv measured after 8 hrs by LC-MS analysis. The data set is classed as ADME, organism-based. Particulars: in vivo.
Data set [8] can be described thus: Drug concentration in male C57BL/6N mouse plasma at 1 mg/kg, iv measured after 8 hrs by LC-MS analysis. The data set is classed as ADME, organism-based.
Data set [9] is described as follows: AUC (0 to 8 hrs) in male C57BL/6N mouse at 1 mg/kg, iv measured after 8 hrs by LC-MS analysis. Particulars: in vivo. The data set is classed as ADME, organism-based.
Data set [10] in a line: Cmax in male C57BL/6N mouse at 10 mg/kg, sc measured after 12 hrs by LC-MS analysis. The data set is classed as ADME, organism-based. Particulars: in vivo.
A short description of data set [11]: Tmax in male C57BL/6N mouse at 10 mg/kg, sc measured after 12 hrs by LC-MS analysis. The format is ADME, organism-based. Particulars: in vivo.
The nature of data set [12]: Drug concentration in male C57BL/6N mouse plasma at 10 mg/kg, sc measured after 12 hrs by LC-MS analysis. The data set is classed as ADME, organism-based.
Data set [13] in a line: Clearance in male C57BL/6N mouse at 10 mg/kg, sc measured after 12 hrs by LC-MS analysis. The format is ADME, organism-based. Particulars: in vivo.
The nature of data set [14]: AUC (0 to 12 hrs) in male C57BL/6N mouse at 10 mg/kg, sc measured after 12 hrs by LC-MS analysis. The data set is classed as ADME, organism-based. Particulars: in vivo.
For data set [15], the target named is T1, Probable G-protein coupled receptor 132. This is another data set of the same source.
Description: Binding affinity to SmBit-tagged human G2A expressed in CHOK-1 cells co-expressing LgBit-betaarrestin2 incubated for 15 mins by NanoLuc betaarrestin2 recruitment assay

On to `O=C1C2=C(CCN(Cc3ccccc3)C2)N2CCN=C2N1Cc1ccc(C(F)(F)F)cc1`, for which, in [1], it took 3.92 µM to reach a half-maximal effect (EC50).

Regarding `O=C(N[C@H](Cc1ccccc1)C(=O)O)c1cccc(OCc2cccnc2)c1`, the solubility entry in data set [2] was “>= 3000 uM”. Also, in data set [3], the remaining at 1 h was 98%. Moreover, the CLint in data set [4] came out at 1.68 µL/min/mg. For the same compound, in [5], the viability at 72 h, up to 100 µM was ≥ 90%. Moreover, the results for the Cmax in [6] and in data set [10] were 45.3 ng/mL and 755 ng/mL, respectively. The Tmax in [7] was found to be 15 min; in data set [11] it was 30 min. The compound also showed a concentration at 8 h in [8] of 2.4 ng/mL. This compound yielded an AUC(0-t) at 8 h in [9] of 47.3 ng·h/mL. The concentration at 12 h in data set [12] came to 2.9 ng/mL. The same compound had a CL/F in data set [13] of 141 mL/min/kg. The same compound had an area under the curve AUC(0-t) at 12 h in data set [14] of 591 ng·h/mL. For the same compound, the EC50 is 0.82 µM in data set [1] and 7.7 µM in data set [15]. In data set [1], `O=C(NC(Cc1ccccc1)C(=O)O)c1cccc(OCc2ccccc2)c1` (stereo unspecified) had an EC50 of 7.5 µM. Same read-out and setting: then `O=C(N[C@H](Cc1ccc(Cl)cc1)C(=O)O)c1cccc(OCc2cccnc2)c1`, with 7.53 µM. `O=C(N[C@@H](CC1CCCCC1)C(=O)O)c1cccc(OCc2cccnc2)c1` had an EC50 in [1] of 12.2 µM.

In the case of `O=C(N[C@@H](C(=O)O)c1ccccc1)c1cccc(OCc2cccnc2)c1`, in [1], the 50% effective concentration (EC50) was 38.4 µM. Still for that read-out and setting: next, `C[C@H]1CC[C@@](NC(=O)c2cccc(OCc3cccnc3)c2)(C(=O)O)CC1`: 13.2 µM; `CCC(NC(=O)c1cccc(OCc2cccnc2)c1)C(=O)O` (stereo unspecified): 27.5 µM. In the case of `O=C(NC(Cc1ccc(F)cc1)C(=O)O)c1cccc(OCc2cccnc2)c1` (stereo unspecified), the EC50 in data set [1] came out at 1.96 µM. For `O=C(NC(Cc1ccccc1)C(=O)O)c1cccc(OCc2cccnc2)c1` (stereo unspecified), the viability at 72 h, up to 100 µM in [5] is ≥ 90%. The compound further displayed an EC50 in data set [1] of 1.74 µM. In turn, `CCC[C@@H](NC(=O)c1cccc(OCc2cccnc2)c1)C(=O)O` yielded an EC50 in data set [1] of 40.6 µM. For `O=C(N[C@H](CCc1ccccc1)C(=O)O)c1cccc(OCc2cccnc2)c1`, the EC50 in data set [1] stood at 12 µM. `CCCC(NC(=O)c1cccc(OCc2cccnc2)c1)C(=O)O` (stereo unspecified) had an EC50 in data set [1] of 6.87 µM. Take `COC[C@H](NC(=O)c1cccc(OCc2cccnc2)c1)C(=O)O`: the concentration for a half-maximal effect (EC50) in data set [1] was > 100 µM. `O=C(NC(C(=O)O)c1cccnc1)c1cccc(OCc2cccnc2)c1` (stereo unspecified): in data set [1], the half-maximal effective concentration (EC50) stood at 79.2 µM. As to `O=C(N[C@H](Cc1ccc(C(F)(F)F)cc1)C(=O)O)c1cccc(OCc2cccnc2)c1`, it took 8.71 µM to reach a half-maximal effect in data set [1] (EC50). This EC50 lies about 9.1-fold lower than the previous one. For `O=C(NC(C(=O)O)C1CC1)c1cccc(OCc2cccnc2)c1` (stereo unspecified), the 50% effective concentration (EC50) in data set [1] is > 100 µM. In [1], `O=C(N[C@@H](Cc1ccccc1)C(=O)O)c1cccc(OCc2cccnc2)c1` yielded an EC50 of 31.1 µM. The same measure, in the same setting: next, `CC(NC(=O)c1cccc(OCc2cccnc2)c1)(C(=O)O)c1ccccc1` (stereo unspecified): 6.2 µM; `O=C(NC(Cc1ccncc1)C(=O)O)c1cccc(OCc2cccnc2)c1` (stereo unspecified): 49.7 µM. The compound `CCC[C@H](NC(=O)c1cccc(OCc2cccnc2)c1)C(=O)O` showed an EC50 in data set [1] of 2.92 µM. `O=C(NC(Cc1ccccc1Cl)C(=O)O)c1cccc(OCc2cccnc2)c1` (stereo unspecified) came in with an EC50 in [1] of 13.5 µM.

With `CC(C)[C@H](NC(=O)c1cccc(OCc2cccnc2)c1)C(=O)O`, the EC50 in data set [1] was determined as 7.33 µM. Compared with the last compound, the EC50 is about 1.8-fold lower. As for `CC(c1ccccc1)C(NC(=O)c1cccc(OCc2cccnc2)c1)C(=O)O` (stereo unspecified), the concentration for a half-maximal effect (EC50) in [1] is 19.6 µM. Against the preceding compound, the EC50 is about 2.7-fold higher. With `O=C(N[C@@H](CCc1ccccc1)C(=O)O)c1cccc(OCc2cccnc2)c1`, the midpoint of the response in data set [1], the EC50, lay at 68.5 µM.

For the compound `CC(C)[C@@H](NC(=O)c1cccc(OCc2cccnc2)c1)C(=O)O`, the EC50 in data set [1] amounted to 64.8 µM. The EC50 values of the last two compounds are within 1.5-fold of each other. On to `CCCCC/C=C\C=C\C(O)CCCCCCCC(=O)O` (racemic), for which the midpoint of the response in data set [1], the EC50, lay at 7.5 µM. This EC50 is about 8.6-fold lower than that of the compound before. On the same count and under the same terms, then `O=C(NC(Cc1ccccc1)C(=O)O)c1cccc(OCc2ccncc2)c1` (racemic), with 2.87 µM; and `O=C(NC(Cc1ccccc1)C(=O)O)c1ccc(OCc2cccnc2)cc1` (racemic), with 38.2 µM; and `O=C(NC(Cc1ccc(OC(F)(F)F)cc1)C(=O)O)c1cccc(OCc2cccnc2)c1` (racemic), with 3.34 µM.

`O=C(NC(Cc1ccccc1)C(=O)O)c1cccc(OCc2ccccn2)c1` (racemic) yielded an EC50 in [1] of 11.9 µM.

A word on the EC50: it is the midpoint of the concentration-response curve. Low values mean higher potency in that assay, high ones lower potency in that assay. A word on the Cmax: it is the peak of the concentration-time curve. The term Tmax denotes the time at which the peak concentration occurs. As usually defined, the AUC(0-t) is the area under the concentration-time curve up to a stated or last time point. Low readings indicate less exposure, high ones more exposure. For orientation: CL/F means the apparent clearance, not corrected for the fraction that reaches the circulation.
